Test results as given in ChEMBL document CHEMBL5137132, “Ulleungdolin, a Polyketide-Peptide Hybrid Bearing a 2,4-Di-O-methyl-β-d-antiarose from Streptomyces sp. 13F051 Co-cultured with Leohumicola minima 15S071” (2022).

Columns and labels:
[1] = system: MDA-MB-231; assay: Anti-migration activity against human MDA-MB-231 cells assessed as inhibition of cell migration at 25 uM incubated for 18 hrs by wound healing assay; format: functional
[2] = system: MDA-MB-231; assay: Anti-migration activity against human MDA-MB-231 cells assessed as inhibition of cell migration at 10 uM incubated for 18 hrs by wound healing assay; format: functional

CO[C@@H]1[C@@H](O)[C@@H](OC)[C@H](Oc2cccc3c2C(=O)N([C@@]2(C(=O)N[C@H](C(=O)N[C@H](C(=O)O)c4ccc(O)cc4)[C@H](O)CC(N)=O)C[C@@H]2C)[C@H]3CCCCCCCC(=O)O)O[C@@H]1C
inhibition at 25 µM [1]: 100%
inhibition at 10 µM [2]: 42%
